From paper PMC8155176, “Reversible modulation of circadian time with chronophotopharmacology” (Nature Communications, 2021)

Legend:
SCN explants = test: Ex vivo circadian period, SCN explants of Per2::Luc knock-in mice; set-up: species or system mouse; conditions: 18 µM
Procedure: Next, we applied the light-dependent period control to the tissue level using explants of Per2::Luc knock-in reporter mice. The mice express PER2-luciferase fusion protein under control of the endogenous Per2 promoter. […] The spleen explants were treated with thermally adapted trans-9, then irradiated with green light (λmax = 530 nm) or kept in dark, and luminescence rhythms were measured (Fig. 6a, b). […] In addition to the peripheral clock in spleen, we investigated the effect of compound 9 on the central clock in the hypothalamic suprachiasmatic nucleus (SCN) that controls behavioral rhythms. […]
(§1) Fig. 6 Ex vivo photo-modulation of the circadian period in mouse tissue explants. a–c The spleen explants of the Per2::Luc knock-in reporter mice were applied with 12 µM compound 9 and irradiated with green light (λmax = 530 nm) for 0 min (dark, black) or 30 min (green). Luminescence rhythms were then monitored and shown in a (mean of n = 5 for dark and n = 6 for green light). […] Luminescence is given in arbitrary units. n = 5 biologically independent samples for dark and n = 6 for green light. […] Luminescence rhythms of a representative sample for each condition are shown in d. […]
To harvest the suprachiasmatic nucleus (SCN), Per2::Luc heterozygote neonatal mice at postnatal day four to seven were euthanized. […] Circadian period was calculated by a cosine curve fitting. […]

spleen explants = test: Ex vivo circadian period, spleen explants of Per2::Luc knock-in mice; set-up: species or system mouse; conditions: 12 µM
Procedure: Next, we applied the light-dependent period control to the tissue level using explants of Per2::Luc knock-in reporter mice. The mice express PER2-luciferase fusion protein under control of the endogenous Per2 promoter. […] The spleen explants were treated with thermally adapted trans-9, then irradiated with green light (λmax = 530 nm) or kept in dark, and luminescence rhythms were measured (Fig. 6a, b). […] In addition to the peripheral clock in spleen, we investigated the effect of compound 9 on the central clock in the hypothalamic suprachiasmatic nucleus (SCN) that controls behavioral rhythms. […] Together, compound 9 enabled light-dependent inducible control of the circadian period at both cellular and tissue levels.
as §1, with “light). Baseline-subtracted data are shown in b. Period changes compared to a DMSO control are plotted in c.” for “light).”

In the case of `CC(C)n1cnc2c(NCc3ccc(F)c(/N=N/c4c(F)cccc4F)c3F)ncnc21` [Compound 9], the “period effect of thermally adapted compound” value (SCN explants; applied on day 4) is reported as “induced period lengthening”, the “period effect upon green light irradiation” value (SCN explants; green light on day 8) is reported as “reduced” and the “period effect after green light irradiation” value (spleen explants; 530 nm 30 min) is reported as “suppressed the period-lengthening effect”. The “period effect vs DMSO control, dark” value (spleen explants; dark) was “period lengthening”.
